Patent publication US7998460B2, “Prevention of deficits in neurogenesis with anti-inflammatory agents” (The Board of Trustees of the Leland Stanford Junior …, priority 2003, dated 2011)
Entries after “also recorded” stand apart in the source; their conditions may differ.

Columns and labels:
hippocampal neurogenesis [1] = assay: LPS-induced systemic inflammation, hippocampal neurogenesis, one-week BrdU labeling paradigm; type: in vivo, rat
Description: To determine the effects of inflammation on adult hippocampal neurogenesis, bacterial lipopolysaccharide (LPS) was injected into adult female rats to induce systemic inflammation. The intraperitoneal administration of LPS causes a peripheral inflammatory cascade that is transduced to the brain via IL-1β from the cerebral vasculature and causes a strong upregulation of central pro-inflammatory cytokine production. Following LPS exposure, rats were treated systemically with bromo-deoxyuridine (BrdU) for 6 days to label proliferating cells within the hippocampus. Animals were then sacrificed on the 7th day. The fate of the BrdU-labeled, proliferative cells was analyzed with immuno-fluorescent staining and confocal microscopy.
Control animals were given either vehicle (5% bicarbonate) injections i.p. or plain dog food. To ensure complete consumption of food and medication in the 2 month paradigm, rats were restricted to 80% of their ad lib intake.
LPS exposure. Bacterial lipopolysaccharide (LPS, Sigma, St Louis, Mo.) was administered in sterile saline by intraperitoneal injection at a dose of 1 mg/Kg one time. This caused mild sickness behavior (decreased grooming, decreased locomotor activity, increased piloerection) for approximately 2 days, resolving by the 3rd day. The dose of LPS chosen causes mild sickness behavior in rats that resolves within 1-2 days; the dose of LPS used to induce endotoxic shock is 10-fold higher than that used in the present study.
Immunocytochemistry and immunofluorescent staining. Free floating sections were immunostained as previously described using the following primary antibodies and working concentrations: mouse anti-NeuN (1:4, gift from R. Mullen); guinea pig-anti GFAP (1:800, Harlan, Indianapolis, Ind.); mouse anti-type III βtubulin (Tuj-1, 1:500, Berkeley Antibody Co., Richmond, Calif.); rabbit anti-NG2 (1:200, Chemicon, Temecula, Calif.); mouse anti-rat CD11b (1:200, Serotec, Oxford, U.K.); mouse anti-ED-1 (1:100, Research Diagnostics Inc., Flanders, N.J.); biotinylated-Lycopersicon esculentum (tomato) lectin (1:200, Vector, Burlingame, Calif.).
Confocal microscopy. All confocal microscopy was performed using a Zeiss 510 confocal microscope. Appropriate gain and black level settings were determined on control tissues stained with secondary antibodies alone. Upper and lower thresholds were always set using the range indicator function to minimize data loss through saturation.
Cell counting and unbiased stereology. All counts were limited to the hippocampal granule cell layer proper and a 50 μm border along the hilar margin that included the neurogenic subgranule zone. The proportion of BrdU cells displaying a lineage-specific phenotype was determined by scoring the co-localization of cell phenotype markers with BrdU using confocal microscopy. Split panel and z-axis analysis were used for all counting. All counts were performed using multi-channel configuration with a 40× objective and electronic zoom of 2. When possible, 100 or more BrdU-positive cells were scored for each marker per animal. Each cell was manually examined in its full “z”-dimension and only those cells for which the nucleus was unambiguously associated with the lineage-specific marker were scored as positive. The total number of BrdU-labeled cells per hippocampal granule cell layer and subgranule zone was determined using diaminobenzadine stained tissues. In a separate series, the total number of ED1-labeled cells per dentate gyrus was also determined using diaminobenzadine stained tissue. Stained BrdU-positive nuclei or ED1-positive cells were scored under light microscopy using Microbrightfield Stereo Investigator software and the Fractionator method. Overestimation was corrected using the Abercrombie method for nuclei with empirically determined average diameter of 13 μm within a 40 μm section.

hippocampal neurogenesis [2] = assay: Oral NSAID course and LPS challenge, hippocampal neurogenesis at day 28 in mice; type: in vivo, mouse; conditions: oral NSAID course, LPS 5 mg/kg
Description: Subjects. All mice used as subjects in this study were treated in accordance with the policies set forth by the Stanford Animal Care and Use Committee and NIH regarding the ethical use of animals for experimentation. CB57BI/6 mice (7 wks old upon arrival from -Taconic) were housed in groups of 4-5 in autoclaved shoebox cages under standard conditions and were given free access to autoclaved Prolab Mouse 3000 chow (PMI Nutrition International, St. Louis, Mo.) and autoclaved tap water. One week after arrival, vehicle- and NSAID-treated mice were given an intraperitoneal (i.p.) injection of sterile saline or lipopolysaccharide (LPS; 5 mg/kg at a concentration of 1 mg/ml isotonic saline; Sigma Aldrich, St. Louis, Mo.) to induce transient illness (Day 0) and daily subcutaneous (s.c.) isotonic saline (0.5 ml) injections (Days 0-3) to prevent illness-induced dehydration. The cell synthesis marker bromodeoxyuridine (BrdU; Sigma Aldrich, St. Louis, Mo.) was injected i.p. (50 mg/kg at a concentration of 10 mg/ml in freshly prepared isotonic saline) once per day for 6 days to label dividing cells, beginning Day 0 (2 h after LPS). The mice were anesthetized with ketamine/xylazine and killed at Days 7 or 28 (to assess hippocampal neurogenesis during illness and just before behavioral testing, respectively) or Day 80 (to measure hippocampal neurogenesis following behavioural testing) by perfusion with 4% paraformaldehyde. Brains were post-fixed overnight in perfusate, microtome sectioned at 40 μm through the hippocampus and stored in tissue cryoprotectant solution at −20° C. until processed immunohistochemically.
NSAID treatment. […]

[3] = Mortality with indomethacin in mice; type: in vivo, mouse; conditions: higher dose (5 mg/kg BID)
Text: The propensity of NSAIDs to induce ulceration and bleeding often outweigh the anti-inflammatory benefits. […] NSAIDs that more selectively target Cox-2, such as roficoxib and celecoxib, are well tolerated and have been widely used as alternatives to broad spectrum NSAIDs for controlling inflammation. In addition, the selective agonism of PPAR-γ is an effective anti-inflammatory strategy, e.g., through administration of thiazolidinediones such as rosiglitazone or pioglitizone. […] Mice were started on a 16 day preventative course of oral NSAID and then challenged with a single IP injection of LPS (5 mg/kg) and then BrdU (50 mg/kg) over 6 days beginning 2 h after LPS. The mice were either perfused 28 days after LPS injection, or trained and tested in the Morris water maze.
NSAID treatment. One half of the saline- and LPS-treated mice were fed non-steroidal anti-inflammatory drug (NSAID), in low fat strawberry milk, twice per day for two weeks following LPS injection (Days 0-13). The mice were initially introduced to low fat strawberry milk (Berkeley Farms, Calif.; 200 μl per animal) in their home cages, four days before LPS was injected (Days […]) and were then placed in a PVC tube (10-cm diameter×18-cm height), twice per day (12 h apart) beginning two days before LPS was injected (Days −2 and −1) until they consumed a 100 μl volume of low fat strawberry milk. […]

[4] = indomethacin 2.5 mg/kg i.p. twice each day with LPS
[5] = LPS 1 mg/Kg i.p. once, sacrifice on 7th day

Molecule: COc1ccc2c(c1)c(CC(=O)O)c(C)n2C(=O)c1ccc(Cl)cc1 [indomethacin]
- effect on density of activated microglia (ED1+) after LPS (hippocampal neurogenesis [1]; [4]): decreases this inflammatory response
- effect on distance from BrdU+ nucleus to nearest vessel after LPS (hippocampal neurogenesis [1]; [4]): restores the vascular association
- effect on LPS-induced inhibition of neurogenesis (hippocampal neurogenesis [1]; indomethacin 2.5 mg/kg i.p. twice each day, concurrently with LPS): completely blocked; also recorded: restores neurogenesis
- effect on neurogenesis in control animals (drug alone) (hippocampal neurogenesis [1]; indomethacin 2.5 mg/kg i.p. twice each day, no LPS): no effect
- effect on LPS-induced deficit in fraction of newborn cells adopting a neuronal fate (DCX and/or NeuN) by Day 28 (hippocampal neurogenesis [2]): attenuated, but did not completely reverse this deficit; also recorded: attenuated this deficit
- effect on LPS-induced reduction of transition state and mature neurons (hippocampal neurogenesis [2]; Day 28): partially reversed the effects of LPS
- mortality [3]: 100%

Molecule: lipopolysaccharide [LPS]
- decrease in hippocampal neurogenesis (proportion of non-microglial BrdU+ cells co-expressing Dcx) (hippocampal neurogenesis [1]; [5]): 35%
- increase in the density of activated microglia (CD68/ED1-positive) in the dentate gyrus (hippocampal neurogenesis [1]; [5]): 240%
